In patent US7078585B1, “Bacterial cell component-unresponsive model mouse” (Japan Science and Technology Agency, priority 1999, dated 2006):
“Also recorded” adds a separate entry of the source. Where two headings read alike, the source gives them in different places.

What was measured:
thymocytes = test: Thymocyte (T cell) proliferation with IL-1 costimulation ([3H]thymidine); type: cell-based, mouse; conditions: 100 U/ml with PHA, ConA or IL-2, 72 hours
Text: Proliferation of T cells were examined by measuring [^3H] amount of [^3H] thymidine taken into the cells.

mice = test: IL-1-induced acute phase protein mRNA in liver and serum TNF-α/IL-6 after intravenous injection; type: in vivo, mouse; conditions: 1 μg intravenously, 2 hours
Description: MyD88 knockout mice of the present invention were intravenously injected with 1 μg of […] (Genzyme), and 2 hours later liver and sera were taken. Total RNA was extracted from the liver using Trizol reagent (GIBCO). This RNA (10 μg) was electrophoresed and transferred to a nylon membrane, then Northern blot analysis was conducted with ^32P-labelled cDNA for acute phase proteins such as serum amyloid A (SAA-I), serum amyloid P(SAP), and haptoglobin (HP).
Because IL-1 induces production of […], increase of TNF-α and IL-6 concentrations in serum taken from MyD88 knockout mice of the present invention and wild-type littermates by the above-stated method were measured by ELISA.

NF-κB = NF-κB DNA binding activity (electrophoretic / gel mobility shift assay); type: cell-based, mouse
Description: Splenic T cells cultured in the presence of IL-12 and anti-CD3 antibody for 4 days were starved for 3 hours and then stimulated with IL-18. Nuclei extracted from the stimulated cells were analyzed by a gel mobility shift assay using a specific probe containing NF-κB binding site.
NF-κB activation in response to LPS or PGN was also investigated. Macrophages of various kinds of mouse were stimulated with said LPS or PGN, then nuclear extracts from the macrophages were purified and incubated with a probe specific to DNA binding site of NF-κB, and visualized by electrophoretic mobility shift assay as described previously (Immunity 9, 143–150, 1998). The results are shown in FIGS. 21C and D. Arrows in FIGS. 21C and D indicate the position of a complex comprised of NF-κB and the specific probe, and arrowheads indicate the position of specific probe only.
(§1) In order to examine whether a lipoprotein/lipopeptide activates intracellular signaling molecules with the results of example 16, peritoneal macrophages of the 4 kinds of mouse (1×10^6) were stimulated with 0.3 ng/ml of R-MALP-2 for 10 minutes, and in vitro kinase assay (Auto in FIG. 25A), Western blot analysis (WB in FIG. 25A), electrophoretic mobility shift assay (FIG. 25B) were conducted with anti-IRAK antibody as in example 12. In addition, in vitro kinase assay (Auto in FIG. 25C) and Western blot analysis (WB in FIG. 25C) with anti-JNK1 antibody were also conducted.

JNK = JNK activation (in vitro kinase assay); type: cell-based, mouse
Description: In addition to induction of NF-κB activation, IL-1 is also known to activate c-Jun N-terminal kinase (JNK). To test whether IL-18 induces JNK activation, an in vitro kinase assay was carried out using GST-c-Jun-fusion protein as a […]. […] IL-18-induced NF-κB and JNK activation was impaired in MyD88-deficient mice.
as §1

YAC-1 targeting cells = test: NK lytic activity against 51Cr-labelled YAC-1 target cells; type: cell-based, mouse; conditions: 24 hours
Description: It has been well known that IL-18 enhances lytic activity of NK cells. Splenic […] from MyD88 knockout mice of the present invention and wild-type littermates were cultured in the presence or absence of 20 ng/ml of IL-18 (Hayashibara Biochemical Laboratories, Inc.) for 24 hours with ^51Cr-labelled mouse lymphoma cells (hereinafter “YAC-1”) targeting cells. 4 hours later, released ^51Cr in supernatants were counted by a gamma counter.

splenic T cells = test: IFN-γ production by splenic cells / splenic T cells (ELISA); type: cell-based, mouse; conditions: 20 ng/ml, 24 hours
Description: Further, splenic B cells of MyD88 knockout mice of the present invention and their wild-type littermates were stimulated by 20 ng/ml of IL-18 and cultured for 24 hours in vitro, then production of IFN-γ in culture supernatants was measured by ELISA.
Splenic T cells of MyD88 knockout mice of the present invention and their wild-type littermates, which were purified to 95% or over, were cultured on anti-CD3 antibody (20 μg/ml)(PharMingen)-coated plates in the presence of 2 ng/ml IL-12. 4 days after the onset of culture, cells were harvested and washed with Hanks' balanced salt solution. The washed cells (2×10^5) were stimulated and cultured again on anti-CD3 antibody (20 μg/ml)-coated 96-well plates for 24 hours with 20 ng/ml of IL-18 or 2 ng/ml of IL-12. Concentration of IFNγ in culture supernatants was determined by ELISA and compared.
MyD88 knockout mice of the present invention and their wild-type littermates were intraperitoneally injected with 500 μg of heat-killed Propionibacterium acnes (P. acnes). […] Concentration of IFN-γ in culture supernatants was determined by ELISA. […] 14 days after injection, T cells were purified from spleen, then cultured and stimulated for 24 hours, as described above, subsequently concentration of IFN-γ was measured.

AP-1 = test: AP-1-dependent reporter activity after IL-18 treatment; type: cell-based; conditions: stimulation with IL-18
Description: Next, it was examined whether the dominant negative MyD88 mutant blocked IL-18-induced NF-κB activation as well. COS-7 cells were transiently transfected with MyD88 (amino acid 152–296) expression vector together with NF-κB-dependent luciferase reporter gene, and luciferase activity after IL-18 treatment was measured. Coexpression of MyD88 blocked IL-18-induced activation almost completely (see FIG. 7).
Because IL-18 activates AP-1-dependent gene information, whether MyD88 (amino acid 152–296) also acted as a dominant negative mutant of IL-18-induced AP-1 activation was investigated. Stimulation with IL-18-induced an approximately 3- to 4-fold increase in AP-1 activity, and this activation was blocked by coexpression of MyD88 (amino acid 152–296) (see FIG. 7).

peritoneal macrophages [1] = test: TNF-α production by stimulated peritoneal macrophages (ELISA); type: cell-based, mouse
peritoneal macrophages [2] = test: IL-6 (ELISA) and NO2^− (Greiss method) production by peritoneal macrophages; type: cell-based, mouse; conditions: for production of IL-6: 24 hours; for production of NO2^−: in the presence of IFN-γ (30 unit/ml)
Description: Each of TLR2 knockout (TLR2−/−), TLR4 knockout (TLR4−/−) and wild-type (wild-type) mice were intraperitoneally injected with 2 ml of 4% thioglycollate medium (DIFCO). Three days later, peritoneal exudate cells were isolated from the peritoneal cavity of each mouse. These cells were cultured in RPMI1640 medium (GIBCO) supplemented with 10% fetal bovine serum (GIBCO) for 2 hours at 37° C. and washed with ice-cold Hank's buffered salt solution (HBSS; GIBCO) to remove nonadherent cells. Adherent cells were used as peritoneal macrophages for following experiments.
Synthetic lipid A, which was soluble in endotoxin-free water and containing 0.025% of triethylamine, was used as said synthetic lipid A. After the culture, production amounts of IL-6 (FIG. 17A), TNF-α (FIG. 17B) and NO2^− (FIG. 17C) in culture supernatants were measured. Production amount of IL-6 was measured by enzyme-linked immunosorbent assay (ELISA; ENDOGEN), and that of TNF-α was measured by ELSIA, according to manufacturer (Genzyme)'s instructions, and that of NO2^31 was measured by the Greiss method using NO2/NO3 Assay Kit (Dojindo Laboratories).

peritoneal macrophages [3] = test: I-A^b expression in peritoneal macrophages after intraperitoneal IFN-γ; type: in vivo, mouse; conditions: 5000 U intraperitoneally, three days after injection
Text: Each of wild-type, MyD88- and TLR4-deficient mice were intraperitoneally injected with 5000 U of IFN-γ (Genzyme) or PBS. Three days after injection, peritoneal macrophages were collected and stained by combining I-A^b molecule on the surface of the macrophage membranes and FITC-conjugated anti-mouse I-A^b antibody, then analyzed by fluorescence-activated cell sorter Calibur using CELLQuest software (see FIG. 9C).

splenic B cells = test: MHC class II (I-A^b) expression on splenic B cells (flow cytometry); type: cell-based, mouse; conditions: 48 hours
Description: The expression of major histocompatibility complex (MHC) class II (I-A^b molecule) on the surface of splenic B cells in response to Re-595LPS was examined by flow cytometry. Splenic B cells (1×10^6) from each of the wild-type, MyD88- and TLR4-deficient mice were cultured for 48 hours in the presence of various concentrations (0, 0.01, 0.1, 1, 10 or 100 μg/ml) of LPS. After the culture, the cells were collected and then stained by combining I-A^b molecule on the surface of the cells and FITC-labelled antibody which is constructed by combining phycoerythrin (PE; PharMingen)-conjugated anti-B220 antibody or biotinylated anti-mouse I-A^b antibody (PharMingen) and fluorescein […] (FITC; PharMingen)-conjugated streptavidin. The stained cells were analyzed on fluorescence-activated cell sorter Calibur (FACS Calibur) using CELLQuest software (Becton Dickinson).
Next, Splenic B cells (1×10^6) from each of the wild-type, MyD88- and TLR4-deficient mice were cultured for 48 hours in the presence or absence of 100 U/ml of IL-4, and then stimulated. Subsequently, the cells were stained by combining I-A^b molecule on the surface of the splenic B cells and PE-conjugated anti-B220 antibody or FITC-conjugated anti-mouse I-A^b antibody. The cell proliferation was measured on fluorescence-activated cell sorter Calibur using CELLQuest software (see FIG. 9B).
In addition, the expression of major histocompatibility complex (MHC) class II (I-A^b) on the surface of B cells in response to Re-595 LPS was examined by flow cytometry. Splenic B cells (1×10^5) of each of wild-type, TLR2 knockout (2−/−) and TLR4 knockout (4−/−) mice were isolated and cultured for 48 hours in 96-well plates with various concentrations (0, 10^1, 10^2, 10^3, 10^4 or 10^5 ng/ml) of LPS or 100 U/ml of IL-4. […] The stained cells were analyzed on fluorescence-activated cell sorter Calibur (FACS Calibur) using CELLQuest software (Becton Dickinson) (FIG. 18B).

[4] = nuclear extracts of wild-type cells
[5] = peritoneal macrophages of TLR2 knockout mice
[6] = peritoneal macrophages of wild-type mice

For IL-1β: IL-1β (Genzyme), cytokine, the proliferation of thymocytes (thymocytes; MyD88 knockout mice) was “almost no enhanced proliferation”, the proliferation of thymocytes (thymocytes; wild-type littermates) was “displayed enhanced proliferation” and the “IL-6 concentration in serum” value (mice; MyD88 knockout mice) was “neither TNF-α nor IL-6 concentration increased”. For the same molecule, the “TNF-α concentration in serum” value (mice; MyD88 knockout mice) was “neither TNF-α nor IL-6 concentration increased”, the “increase of mRNA expression of acute phase proteins (SAA-I, SAP, HP) in liver” value (mice; MyD88 knockout mice) was “not observed in MyD88 knockout mice” and the “increase of mRNA expression of acute phase proteins (SAA-I, SAP, HP) in liver” value (mice; wild-type littermates) was “increase of induction was observed in wild-type mice”. The “IL-6 concentration in serum” value (mice; wild-type mice) was “TNF-α and IL-6 concentrations increased” and the “TNF-α concentration in serum” value (mice; wild-type mice) was “TNF-α and IL-6 concentrations increased”.

In the case of “IL-18: IL-18 (Hayashibara Biochemical Laboratories, Inc.), cytokine”, the “NF-κB DNA binding activity / NF-κB activation” value (NF-κB; [4]) is reported as “detected in the nuclear extracts from wild-type cells”, the JNK activation (JNK; MyD88-deficient cells) is reported as “IL-18-induced JNK activation was not observed” and the JNK activation (JNK; Th1-developing cells of wild-type mice) is reported as “induced JNK activation”. The “lytic activity to YAC-1 targeting cells” value (YAC-1 targeting cells; splenic cells of MyD88 knockout mice) was “not enhanced”, the “lytic activity to YAC-1 targeting cells” value (YAC-1 targeting cells; splenic cells of wild-type mice) was “dramatically enhanced” and the “production of IFN-γ” value (splenic T cells; splenic cells / T cells of MyD88 knockout mice) was “production of IFN-γ was not observed; also recorded: cannot enhance IL-18-responsive production of IFNγ; also recorded: could not be enhanced”. For the same molecule, the “production of IFN-γ” value (splenic T cells; splenic cells / T cells of wild-type mice) was “production of IFN-γ was induced; also recorded: high level of IFN-γ production in response to IL-18 was observed” and the “increase in AP-1 activity” value (AP-1) was 3- to 4 fold.

With TNF-α the “NF-κB DNA binding activity / NF-κB activation” value (NF-κB; nuclear extracts of MyD88-deficient cells) was “almost the same levels of NF-κB DNA binding activity”, the “NF-κB DNA binding activity / NF-κB activation” value (NF-κB; [4]) was “almost the same levels of NF-κB DNA binding activity” and the JNK activation (JNK; MyD88-deficient cells) was “normal activation of JNK was observed”.

lipid A was tested, and the “production of TNF-α” value (peritoneal macrophages [1]) was “produced IL-6 and TNF-α”, the “production of TNF-α” value (peritoneal macrophages [1]; peritoneal macrophages of TLR4-deficient mice, 24 hours) was “produced neither IL-6 nor TNF-α” and the “production of IL-6” value (peritoneal macrophages [2]; [5]) was “produced IL-6 and TNF-α”. For the same molecule, the “production of NO2^−” value (peritoneal macrophages [2]; [5]) was “production of NO2^− was confirmed”, the “production of IL-6” value (peritoneal macrophages [2]; peritoneal macrophages of TLR4 knockout mice) was “produced neither IL-6 nor TNF-α” and the “production of IL-6” value (peritoneal macrophages [2]; [6]) was “produced IL-6 and TNF-α”. The “production of NO2^−” value (peritoneal macrophages [2]; [6]) was “production of NO2^− was confirmed”.

B1: IFN-γ: IFN-γ (Genzyme), cytokine (protein, UniProt P01579 24-161, looked up)
Interferon gamma: QDPYVKEAENLKKYFNAGHSDVADNGTLFLGILKNWKEESDRKIMQSQIVSFYFKLFKNFKDDQSIQKSVETIKEDMNVKFFNSNKKKRDDFEKLTNYSVTDLNVQRKAIHELIQVMAELSPAAKTGKRKRSQMLFRG
In the case of B1, the “expression of I-A^b molecule in peritoneal macrophages” value (peritoneal macrophages [3]) is reported as “comparative among wild-type, MyD88- and TLR4-deficient mice”.

B2: IL-4: IL-4 (Genzyme), cytokine (protein, UniProt P05112 25-153, looked up)
Interleukin-4: HKCDITLQEIIKTLNSLTEQKTLCTELTVTDIFAASKNTTEKETFCRAATVLRQFYSHHEKDTRCLGATAQQFHRHKQLIRFLKRLDRNLWGLAGLNSCPVKEANQSTLENFLERLKTIMREKYSKCSS
In the case of B2, the “expression of I-A^b molecule” value (splenic B cells; splenic B cells of MyD88-deficient mice) is reported as “showed same reaction as those of wild-type mice”, the “expression of I-A^b molecule” value (splenic B cells; splenic B cells of TLR2 knockout mice) is reported as “normal expression of I-A^b molecule” and the “expression of I-A^b molecule” value (splenic B cells; splenic B cells of TLR4-deficient mice) is reported as “showed same reaction as those of wild-type mice; also recorded: normal expression of I-A^b molecule”.
